The source made the active and inactive calls.
Key:
Protein skinhead-1 = molecular target: T1, Protein skinhead-1 (Caenorhabditis elegans, UniProt P34707); assay type: functional
T1 sequence (P34707 whole entry): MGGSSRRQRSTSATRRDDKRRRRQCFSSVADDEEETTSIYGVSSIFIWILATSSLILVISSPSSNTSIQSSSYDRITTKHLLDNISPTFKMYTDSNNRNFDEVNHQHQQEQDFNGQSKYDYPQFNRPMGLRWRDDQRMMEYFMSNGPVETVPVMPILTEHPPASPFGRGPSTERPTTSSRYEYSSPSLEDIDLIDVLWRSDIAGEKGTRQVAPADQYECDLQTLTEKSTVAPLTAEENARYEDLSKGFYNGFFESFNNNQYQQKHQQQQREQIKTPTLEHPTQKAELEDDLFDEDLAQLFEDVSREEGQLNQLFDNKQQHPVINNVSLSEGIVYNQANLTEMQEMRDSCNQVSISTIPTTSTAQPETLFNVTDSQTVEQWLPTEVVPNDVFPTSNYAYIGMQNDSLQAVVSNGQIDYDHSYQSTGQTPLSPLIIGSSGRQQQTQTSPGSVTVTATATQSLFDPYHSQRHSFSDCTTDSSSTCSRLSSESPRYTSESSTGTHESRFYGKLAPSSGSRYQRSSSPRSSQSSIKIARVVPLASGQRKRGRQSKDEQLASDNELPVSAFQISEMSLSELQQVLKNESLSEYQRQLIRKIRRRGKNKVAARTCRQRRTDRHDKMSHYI

Fatty acid synthase [1] = molecular target: T2, Fatty acid synthase (Homo sapiens, UniProt P49327); assay: inhibition of human FAS-TE enzyme activity – biochemical, kinetic fluorescence intensity, dose response (AID 624326); assay type: functional;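 note: rate of fluorescence rise from hydrolysis of a fluorogenic O-methyl fluorescein ester substrate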
T2 sequence (P49327 whole entry): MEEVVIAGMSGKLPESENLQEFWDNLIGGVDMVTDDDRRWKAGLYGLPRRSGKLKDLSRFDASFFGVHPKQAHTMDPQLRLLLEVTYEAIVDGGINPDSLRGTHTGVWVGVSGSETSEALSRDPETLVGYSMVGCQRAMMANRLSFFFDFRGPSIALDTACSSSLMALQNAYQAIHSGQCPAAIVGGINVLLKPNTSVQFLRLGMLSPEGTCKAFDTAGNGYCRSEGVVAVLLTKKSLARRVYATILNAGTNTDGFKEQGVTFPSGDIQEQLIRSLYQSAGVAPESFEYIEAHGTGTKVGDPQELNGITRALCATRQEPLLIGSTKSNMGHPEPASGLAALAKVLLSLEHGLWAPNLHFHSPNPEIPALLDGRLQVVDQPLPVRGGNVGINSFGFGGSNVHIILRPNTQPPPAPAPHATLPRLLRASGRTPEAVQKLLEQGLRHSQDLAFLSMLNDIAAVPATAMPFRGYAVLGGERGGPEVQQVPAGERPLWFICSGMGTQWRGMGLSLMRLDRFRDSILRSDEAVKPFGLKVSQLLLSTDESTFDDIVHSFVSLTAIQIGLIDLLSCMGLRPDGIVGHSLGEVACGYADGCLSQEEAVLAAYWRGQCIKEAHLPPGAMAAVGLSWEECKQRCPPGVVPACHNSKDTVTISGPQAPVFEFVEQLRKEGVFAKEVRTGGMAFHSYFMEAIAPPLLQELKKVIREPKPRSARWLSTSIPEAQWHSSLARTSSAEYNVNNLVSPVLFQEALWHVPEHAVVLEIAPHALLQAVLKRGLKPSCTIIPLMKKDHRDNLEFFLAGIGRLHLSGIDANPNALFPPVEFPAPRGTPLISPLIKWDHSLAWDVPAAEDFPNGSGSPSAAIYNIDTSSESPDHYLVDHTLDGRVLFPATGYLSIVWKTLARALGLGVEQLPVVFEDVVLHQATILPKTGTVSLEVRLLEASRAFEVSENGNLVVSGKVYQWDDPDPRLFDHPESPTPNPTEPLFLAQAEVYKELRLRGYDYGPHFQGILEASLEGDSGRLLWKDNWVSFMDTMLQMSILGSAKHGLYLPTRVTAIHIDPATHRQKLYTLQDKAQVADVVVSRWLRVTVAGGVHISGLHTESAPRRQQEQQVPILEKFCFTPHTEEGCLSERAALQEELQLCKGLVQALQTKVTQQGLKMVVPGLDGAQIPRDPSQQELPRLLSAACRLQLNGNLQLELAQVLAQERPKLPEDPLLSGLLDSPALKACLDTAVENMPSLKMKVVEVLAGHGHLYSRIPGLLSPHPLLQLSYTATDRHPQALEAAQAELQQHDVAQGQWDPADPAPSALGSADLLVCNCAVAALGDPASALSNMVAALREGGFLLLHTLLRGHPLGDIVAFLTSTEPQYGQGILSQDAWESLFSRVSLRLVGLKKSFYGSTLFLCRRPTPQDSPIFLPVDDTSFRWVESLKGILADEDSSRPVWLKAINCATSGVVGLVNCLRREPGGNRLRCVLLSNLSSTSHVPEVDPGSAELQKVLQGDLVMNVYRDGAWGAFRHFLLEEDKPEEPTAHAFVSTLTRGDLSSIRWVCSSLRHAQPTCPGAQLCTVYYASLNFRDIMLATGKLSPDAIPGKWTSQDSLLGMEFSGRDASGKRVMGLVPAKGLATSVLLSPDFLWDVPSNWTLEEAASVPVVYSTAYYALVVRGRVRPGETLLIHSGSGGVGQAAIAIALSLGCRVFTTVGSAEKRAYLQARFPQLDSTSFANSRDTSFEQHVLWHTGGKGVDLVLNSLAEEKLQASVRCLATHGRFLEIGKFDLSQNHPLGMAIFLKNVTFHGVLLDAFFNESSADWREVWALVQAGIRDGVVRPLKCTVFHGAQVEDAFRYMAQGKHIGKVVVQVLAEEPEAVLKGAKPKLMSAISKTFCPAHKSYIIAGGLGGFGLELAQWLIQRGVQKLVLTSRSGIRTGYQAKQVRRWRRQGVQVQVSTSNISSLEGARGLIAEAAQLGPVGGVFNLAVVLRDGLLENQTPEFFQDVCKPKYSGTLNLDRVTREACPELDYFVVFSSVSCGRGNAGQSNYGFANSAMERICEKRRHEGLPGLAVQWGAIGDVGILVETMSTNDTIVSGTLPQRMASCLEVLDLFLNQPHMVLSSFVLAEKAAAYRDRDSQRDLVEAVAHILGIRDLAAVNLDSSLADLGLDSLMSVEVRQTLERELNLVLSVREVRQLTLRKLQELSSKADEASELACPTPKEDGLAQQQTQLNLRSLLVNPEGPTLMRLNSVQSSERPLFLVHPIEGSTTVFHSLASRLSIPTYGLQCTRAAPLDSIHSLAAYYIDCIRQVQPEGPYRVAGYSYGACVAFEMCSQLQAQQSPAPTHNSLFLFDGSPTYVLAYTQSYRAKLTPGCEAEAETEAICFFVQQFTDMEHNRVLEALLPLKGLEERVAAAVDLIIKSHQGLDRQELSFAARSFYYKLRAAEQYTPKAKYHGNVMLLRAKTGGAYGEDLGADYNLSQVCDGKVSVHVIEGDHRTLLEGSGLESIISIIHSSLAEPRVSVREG

Fatty acid synthase [2] = molecular target: T2, Fatty acid synthase; assay: inhibition of human FAS-TE enzyme activity – biochemical, endpoint fluorescence intensity, uHTS hits, dose response (AID 624327); assay type: functional;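 note: fluorescence from hydrolysis of an O-methyl fluorescein acyl ester substrate by the enzyme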
[3] = Luminescence Cell-Based Dose Confirmation HTS to Identify Inhibitors of Platelet Dense Granule Release. [Related pubchem assays: 1663 (Primary HTS), 1678 (Summary of Project)]; assay type: functional
[4] = molecular target: Luciferin 4-monooxygenase (Photinus pyralis, UniProt P08659); assay: inhibition of purified Photinus pyralis luciferase – biochemical, luminescence, dose response (AID 1891)
Sequence of Luciferin 4-monooxygenase (P08659 whole entry): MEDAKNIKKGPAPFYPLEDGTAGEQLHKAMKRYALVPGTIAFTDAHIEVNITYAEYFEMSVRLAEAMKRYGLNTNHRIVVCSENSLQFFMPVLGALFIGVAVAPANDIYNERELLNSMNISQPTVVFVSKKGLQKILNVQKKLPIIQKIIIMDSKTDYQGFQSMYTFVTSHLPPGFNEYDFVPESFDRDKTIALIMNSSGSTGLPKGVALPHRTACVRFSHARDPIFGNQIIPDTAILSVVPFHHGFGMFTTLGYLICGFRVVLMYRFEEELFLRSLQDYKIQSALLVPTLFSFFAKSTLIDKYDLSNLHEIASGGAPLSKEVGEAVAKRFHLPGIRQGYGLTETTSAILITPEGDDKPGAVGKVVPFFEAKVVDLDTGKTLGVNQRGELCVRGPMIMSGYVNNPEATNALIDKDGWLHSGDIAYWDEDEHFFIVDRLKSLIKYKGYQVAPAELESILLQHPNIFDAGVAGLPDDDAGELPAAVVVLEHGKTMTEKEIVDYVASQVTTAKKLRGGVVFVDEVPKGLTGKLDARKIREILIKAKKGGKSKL

[5] = NIH3T3 cell viability loss – ATP luminescence, mouse fibroblasts, counter-screen, dose response (AID 2010); assay type: functional, cell-based;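 note: cells exposed to compound for about 90 hours before reading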
[6] = Trypanosoma cruzi growth suppression in host cells – NIH3T3 host cells, beta-gal luminescence, confirmation (AID 2044); assay type: functional, cell-based;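 note: intracellular parasites grown in NIH/3T3 mouse fibroblasts as host cells; luminescent beta-galactosidase reporter signal from transgenic T. cruzi replicating inside host cells; inhibitors lower the luminescence signal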
Paired box protein Pax-8 = Paired box protein Pax-8 (Homo sapiens, UniProt Q06710); assay: PAX8 transcriptional activity inhibition in RMG-I – RMG-I cells, luciferase, cherry-pick, dose response (AID 687027); assay type: functional, cell-based;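 note: luciferase reporter driven by Pax8 target thyroperoxidase promoter measured by SteadyGlo luminescence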
Sequence of Paired box protein Pax-8 (Q06710 whole entry): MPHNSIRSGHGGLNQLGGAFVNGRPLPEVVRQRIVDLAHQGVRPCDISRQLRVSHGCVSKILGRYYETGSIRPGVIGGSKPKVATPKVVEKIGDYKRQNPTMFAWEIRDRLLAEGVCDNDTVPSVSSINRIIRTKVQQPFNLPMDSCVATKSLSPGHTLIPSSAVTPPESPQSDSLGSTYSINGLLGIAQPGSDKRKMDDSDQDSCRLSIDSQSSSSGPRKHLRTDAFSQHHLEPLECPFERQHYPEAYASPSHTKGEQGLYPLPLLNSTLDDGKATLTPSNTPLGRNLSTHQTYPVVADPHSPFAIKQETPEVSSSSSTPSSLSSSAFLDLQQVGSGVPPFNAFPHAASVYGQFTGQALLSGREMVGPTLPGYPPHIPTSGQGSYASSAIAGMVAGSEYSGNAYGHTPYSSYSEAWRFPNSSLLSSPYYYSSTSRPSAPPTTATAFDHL

Row | IC50 (Protein skinhead-1) | IC50 (Fatty acid synthase [1]) | IC50 (Fatty acid synthase [2]) | Compound | other results
1 | > 100 µM (inactive) |  |  | FC(F)(F)c1cnc2c(-c3ccc(Cl)cc3Cl)noc2c1 | 
2 | > 100 µM (inactive) |  |  | c1ccc2c(c1)OCCc1c-2[nH]c2ccccc12 | 
3 | > 100 µM (inactive) |  |  | COc1ccccc1C1C(C(=O)NCc2ccccc2)=C(C)Nc2ncnn21 (stereo unspecified) | 
4 |  | 60.6 µM (inactive) | 30 µM (inactive) | CCC(C)NC(=O)CSc1nc2c(sc(=S)n2Cc2ccco2)c(=O)n1-c1ccccc1 (stereo unspecified) | 
5 |  | 2.31 µM (active) | 2.69 µM (active) | O=C(/C=C/c1cccc([N+](=O)[O-])c1)N1CCN(S(=O)(=O)c2cccs2)CC1 | 
6 |  | 6.9 µM (active) | 5.11 µM (active) | Cc1ccc(S(=O)(=O)Nc2cccc(-c3ccc(N4CCCCCC4)nn3)c2)c(C)c1 | 
7 |  | 10.7 µM (active) | 10.5 µM (active) | CCc1cccc(C)c1NC(=O)COC(=O)c1cc([N+](=O)[O-])ccc1N1CCOCC1 | 
8 |  |  |  | Cc1cccc(OCC(=O)Nc2nc[nH]n2)c1C | EC50 [3]: > 112 µM (not active)
9 |  |  |  | Cc1cccc(OCC(=O)Nc2nnc[nH]2)c1C | EC50 [4]: > 112 µM (not active)
10 |  |  |  | COCCn1cc(C(=O)N2CCC(C)CC2)c2c3ccccc3n(C)c2c1=O | EC50 [4]: > 112 µM (not active); EC50 [3]: > 112 µM (not active)
11 |  |  |  | CCOC(=O)NCCc1ccc(OC)cc1 | EC50 [4]: > 112 µM (not active); EC50 [3]: > 112 µM (not active)
12 |  | 9.36 µM (active) | 11.7 µM (active) | O=C(Nc1c(C(=O)N2CCOCC2)cnn1-c1ccccc1)c1ccc([N+](=O)[O-])cc1 | 
13 | 43.9 µM (active) |  |  | Clc1ccc(OCCSc2ncccn2)cc1 | 
14 | 15.6 µM (active) |  |  | Cc1nn2cc(-c3ccc(Cl)cc3)nc2s1 | 
15 |  |  |  | CCOC(=O)N1CCN(CC(=O)N2CCC(C(N)=O)CC2)CC1 | EC50 [4]: > 112 µM (not active); EC50 [3]: > 112 µM (not active)
16 |  |  |  | CCOC(=O)N1CCN(Cc2nc3c(c(=O)n(C)c(=O)n3C)n2Cc2cccc3ccccc23)CC1 | EC50 [4]: > 112 µM (not active); EC50 [3]: > 112 µM (not active)
17 | > 100 µM (inactive) |  |  | CC(=O)c1cccc(NC(=O)N2CCCC2C(=O)Nc2c(C)cccc2C)c1 (stereo unspecified) | 
18 |  | 4.26 µM (active) | 1.83 µM (active) | COc1ccc(C(=O)N/C(=C\c2cn(S(=O)(=O)N(C)C)c3ccccc23)C(=O)N2CCOCC2)cc1 | 
19 | > 100 µM (inactive) |  |  | COc1cc2sc3ccc(C#Cc4ccc(N)cc4)cc3c(=O)c2cc1OC | 
20 |  |  |  | C[C@H](CO)N1C[C@H](C)[C@@H](CN(C)Cc2ccc(C(F)(F)F)cc2)Oc2ccc(NS(=O)(=O)c3ccc(F)cc3)cc2CC1=O | AC50 (Paired box protein Pax-8): 11.9 µM (active)
21 |  |  |  | C[C@@H]1CCCCO[C@H](CN(C)S(=O)(=O)c2ccc(Cl)cc2)[C@@H](C)CN([C@@H](C)CO)C(=O)c2cc(NC(=O)Nc3ccc(C(F)(F)F)cc3)ccc2O1 | AC50 (Paired box protein Pax-8): 2.87 µM (active)

Row | Compound | IC50 (Protein skinhead-1) | IC50 (Fatty acid synthase [1]) | IC50 (Fatty acid synthase [2]) | other results
22 | CC1=C(C(=O)c2ccccc2)C(c2cn(-c3ccccc3)nc2-c2ccc(Cl)cc2)NC(S)=N1 (stereo unspecified) | > 100 µM (inactive) |  |  | EC50 [5]: > 30 µM (not active); EC50 [6]: 2.33 µM (active)
23 | CCOC(=O)[C@@H]1[C@H]2COc3ccc(Br)cc3[C@@H]2N2C(=O)N(c3cccc(Cl)c3)C(=O)[C@@]12C |  | 11.8 µM (active) | 22.9 µM (inactive) | 

Source: ChEMBL document CHEMBL1201862, “PubChem BioAssay data set” (2004)
